Reference: patent US20230399312A1, “SUBSTITUTED PYRIMIDINES AND METHODS OF USE” (THERAVANCE BIOPHARMA R&D IP, LLC, priority 2020, published 2023)

What was measured:
[1] = molecular target: T1, recombinant human ALK5 (TGF-βR1) protein (Homo sapiens, UniProt P36897); assay: Biochemical ALK5 (TGF-βR1) assay to measure pKi (LANCE Ultra ULight kinase assay); details: apparent pKi, converted from pIC50 by Cheng-Prusoff
T1 construct: purchased Life Technologies PR9075A
T1 sequence (P36897 34-503): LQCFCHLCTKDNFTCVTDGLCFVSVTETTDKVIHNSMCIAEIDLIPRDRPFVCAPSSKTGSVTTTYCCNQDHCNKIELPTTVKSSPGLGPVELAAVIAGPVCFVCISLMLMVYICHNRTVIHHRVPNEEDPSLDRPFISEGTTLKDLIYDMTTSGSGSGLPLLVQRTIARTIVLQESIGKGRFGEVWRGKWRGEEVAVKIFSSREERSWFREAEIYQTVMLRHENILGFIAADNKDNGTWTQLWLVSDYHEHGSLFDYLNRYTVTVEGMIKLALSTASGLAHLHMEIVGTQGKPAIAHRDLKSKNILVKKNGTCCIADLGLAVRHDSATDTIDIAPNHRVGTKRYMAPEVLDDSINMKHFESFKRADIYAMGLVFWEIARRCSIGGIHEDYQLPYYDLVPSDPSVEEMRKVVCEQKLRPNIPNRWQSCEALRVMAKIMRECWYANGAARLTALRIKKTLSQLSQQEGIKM
In short: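 Europium TR-FRET kinase assay: the enzyme is exposed to compound for 60 min at room temperature, and reaction with ATP runs 60 min at 37 °C. Percent inhibition relative to DMSO and SD-208 controls gives pIC50, which is converted to pKi.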

[2] = system: TGF-β-stimulated SMAD3 phosphorylation in BEAS-2B cells; assay: Cellular ALK5 potency assay, inhibition of TGF-β stimulated pSMAD3 formation in BEAS-2B cells; format: cell-based; details: Homo sapiens, pSMAD3, TGF-β 10 ng/mL, read-out: BEAS2B pIC50 (converted)
In short: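 Human lung epithelial BEAS-2B cells were preincubated 1 h at 37 °C with compound in HBSS/HEPES/1% BSA, then stimulated 30 min with 10 ng/mL TGF-β. pSMAD3 in lysates was quantified by AlphaLISA relative to untreated stimulated cells; reported as pIC50.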

Row | Ki [1] [nM] | Structure (SMILES) | IC50 [2] [nM]
1 | 0.0398 to 0.316 | Cc1cccc(-c2nccc(Nc3ccnc(Nc4ccc(CN5CCS(=O)(=O)CC5)cc4)n3)n2)n1 [Compound 417, N2-[4-[(1,1-dioxo-1,4-thiazinan-4-yl)methyl]phenyl]-N4-[2-(6-methyl-2-pyridyl)pyrimidin-4-yl]pyrimidine-2,4-diamine] | 25.1 to 158
2 | 0.398 to 3.16 | CCC(C)OC(=O)C1CNCCN1c1ccc(Nc2nccc(Nc3ccnc(-c4cccc(C)n4)n3)n2)cc1 (racemic) [Compound 230, [rac-(1R)-1-methylpropyl] 1-[4-[[4-[[2-(6-methyl-2-pyridyl)pyrimidin-4-yl]amino]pyrimidin-2-yl]amino]phenyl]piperazine-2-carboxylate] | 25.1 to 158
3 | 3.98 to 31.6 | Cc1cccc(-c2nccc(Nc3ccnc(Nc4ccc(C(=O)O[C@H]5CCNC5)cn4)n3)n2)n1 [Compound 575, [(3S)-pyrrolidin-3-yl] 6-[[4-[[2-(6-methyl-2-pyridyl)pyrimidin-4-yl]amino]pyrimidin-2-yl]amino]pyridine-3-carboxylate] | 200 to 1260
4 | 0.0398 to 0.316 | Cc1cccc(-c2nccc(Nc3ccnc(Nc4ccc(N5CCC(NCC(C)C)CC5)cc4)n3)n2)n1 [Compound 194, N2-[4-[4-(isobutylamino)-1-piperidyl]phenyl]-N4-[2-(6-methyl-2-pyridyl)pyrimidin-4-yl]pyrimidine-2,4-diamine] | 25.1 to 158
5 | 0.0398 to 0.316 | Cc1cccc(-c2nccc(Nc3ccnc(Nc4cccc(N)c4)n3)n2)n1 [Compound 315, N2-(3-aminophenyl)-N4-[2-(6-methyl-2-pyridyl)pyrimidin-4-yl]pyrimidine-2,4-diamine] | ≤ 20
6 | 0.0398 to 0.316 | Cc1cccc(-c2nccc(Nc3ccnc(Nc4ccc(NC(=O)C5CCNC5)cc4)n3)n2)n1 (stereo not drawn) [Compound 78, N-[4-[[4-[[2-(6-methyl-2-pyridyl)pyrimidin-4-yl]amino]pyrimidin-2-yl]amino]phenyl]pyrrolidine-3-carboxamide] | ≤ 20
7 | 0.0398 to 0.316 | Cc1cccc(-c2nccc(Nc3ccnc(Nc4csc(C(=O)O[C@H]5CC[C@@](C)(N)CC5)c4)n3)n2)n1 [Compound 566, (4-amino-4-methyl-cyclohexyl) 4-[[4-[[2-(6-methyl-2-pyridyl)pyrimidin-4-yl]amino]pyrimidin-2-yl]amino]thiophene-2-carboxylate] | 25.1 to 158
8 | 0.0398 to 0.316 | Cc1cccc(-c2nccc(Nc3ccnc(Nc4ccc(CN5C[C@@H](C)NC[C@H]5C)cc4)n3)n2)n1 [Compound 32, N2-[4-[[(2R,5R)-2,5-dimethylpiperazin-1-yl]methyl]phenyl]-N4-[2-(6-methyl-2-pyridyl)pyrimidin-4-yl]pyrimidine-2,4-diamine] | 25.1 to 158
9 | 0.0398 to 0.316 | Cc1cccc(-c2nccc(Nc3ccnc(Nc4cccc(CN5CCOCC5)c4)n3)n2)n1 [Compound 141, N4-[2-(6-methyl-2-pyridyl)pyrimidin-4-yl]-N2-[3-(morpholinomethyl)phenyl] pyrimidine-2,4-diamine] | 25.1 to 158
10 | 0.0398 to 0.316 | Cc1cccc(-c2nccc(Nc3ccnc(Nc4ccc(CN5C[C@H](C)NC[C@H]5C)cc4)n3)n2)n1 [Compound 376, N2-[4-[[(2R,5S)-2,5-dimethylpiperazin-1-yl]methyl]phenyl]-N4-[2-(6-methyl-2-pyridyl)pyrimidin-4-yl]pyrimidine-2,4-diamine] | 25.1 to 158
11 | 0.398 to 3.16 | Cc1cccc(-c2nccc(Nc3ccnc(Nc4ccc(NS(=O)(=O)N5CCN(C)CC5)cc4)n3)n2)n1 [Compound 303, 4-methyl-N-[4-[[4-[[2-(6-methyl-2-pyridyl)pyrimidin-4-yl]amino]pyrimidin-2-yl]amino]phenyl]piperazine-1-sulfonamide] | 25.1 to 158
12 | 0.398 to 3.16 | Cc1cccc(-c2nccc(Nc3ccnc(Nc4cncc(C(=O)OCC5CNC5)c4)n3)n2)n1 [Compound 548, azetidin-3-ylmethyl 5-[[4-[[2-(6-methyl-2-pyridyl)pyrimidin-4-yl]amino]pyrimidin-2-yl]amino]pyridine-3-carboxylate] | 25.1 to 158
